# Results from ChEMBL document CHEMBL4483862, “Open-source discovery of chemical leads for next-generation chemoprotective antimalarials” (2018).
# Tested on: Plasmodium berghei
# Experiment: Luciferase/luciferin-expressing antifolate-resistant parasites were used to infect a culture of HepG2 cells that were pre-incubated with compounds. Infected hepatocytes emit light due to the luciferase reaction. Assay results are presented as the percent inhibition of light emission compared to control. […]
# Type: functional
# Conditions: sporozoite; for IC90: read-out: LUCIFERASE INFECTION ASSAY - IC90
# [1] = read-out: LUCIFERASE INFECTION ASSAY - IC50
Compound,IC90,IC50 [1],also measured
Cc1ccc(C)n1-c1nc2ccc(C(=O)NCC(O)c3ccccc3)cc2s1 (configuration not stated),4.67 µM,,"IC50 (HEPG2TOX_HILL_SLOPE 1.7, HEPG2TOX_R_SQUARED 0.986, PBLUC_HILL_SLOPE 2.65, PBLUC_R_SQUARED 0.703, read-out: LUCIFERASE INFECTION ASSAY - IC50): 2.04 µM"
CCS(=O)(=O)c1ncc(Cl)c(C(=O)Nc2ccccc2C(F)(F)F)n1,4.41 µM,,"IC50 (HEPG2TOX_HILL_SLOPE 4.53, HEPG2TOX_R_SQUARED 0.715, PBLUC_HILL_SLOPE 8.07, PBLUC_R_SQUARED 0.684, read-out: LUCIFERASE INFECTION ASSAY - IC50): 3.36 µM"
O=C(Nc1ccc(OC(F)(F)F)cc1)N1CCc2nc(NCc3cccc(Oc4ccccc4)c3)ncc2C1,> 6.16 µM,> 6.16 µM,
O=C1Nc2ccc(Cl)cc2/C1=C/c1cn(Cc2ccccc2)nc1-c1cccnc1,> 10 µM,,"IC50 (PBLUC_HILL_SLOPE 3.18, PBLUC_R_SQUARED 0.696, read-out: LUCIFERASE INFECTION ASSAY - IC50): 5.57 µM"
CCOC(=O)c1c(C)[nH]c(C(=O)C(C)Sc2nnc(-c3ccccc3)c(-c3ccccc3)n2)c1C (configuration not stated),> 10 µM,> 10 µM,
CC(OC(=O)C1CCN(C(=O)c2ccc(Cl)cc2)CC1)C(=O)Nc1ccc([N+](=O)[O-])cc1C(F)(F)F (configuration not stated),> 10 µM,> 10 µM,
CCCCCN1C(=O)/C(=N\n2c(-c3ccccc3F)cs/c2=N\C2CCCCC2)c2ccccc21,> 10 µM,,"IC50 (FFLUC_HILL_SLOPE 1.7, FFLUC_R_SQUARED 0.73, PBLUC_HILL_SLOPE 13.5, PBLUC_R_SQUARED 0.29, read-out: LUCIFERASE INFECTION ASSAY - IC50): 8.58 µM"
CCCc1c(NC(=O)Nc2ccc(F)cc2)cnn1-c1ccccc1,6.91 µM,,"IC50 (HEPG2TOX_HILL_SLOPE 4.02, HEPG2TOX_R_SQUARED 0.285, PBLUC_HILL_SLOPE 3.66, PBLUC_R_SQUARED 0.261, read-out: LUCIFERASE INFECTION ASSAY - IC50): 3.79 µM"
O=S(=O)(Nc1cc(Cl)c(Cl)cc1Cl)c1cc(C(F)(F)F)cc(C(F)(F)F)c1,1.98 µM,,"IC50 (HEPG2TOX_HILL_SLOPE 2.48, HEPG2TOX_R_SQUARED 0.974, PBLUC_HILL_SLOPE 1.87, PBLUC_R_SQUARED 0.724, read-out: LUCIFERASE INFECTION ASSAY - IC50): 0.611 µM"
O=C(CCc1c[nH]c2ccccc12)Nc1ccc(N2CCc3sccc3C2)nc1,> 10 µM,8.67 µM,
O=S(=O)(Nc1ccc(C(F)(F)F)cc1Cl)c1cc(C(F)(F)F)ccc1OCC(F)(F)F,3.28 µM,,"IC50 (HEPG2TOX_HILL_SLOPE 1.76, HEPG2TOX_R_SQUARED 0.989, PBLUC_HILL_SLOPE 2.99, PBLUC_R_SQUARED 0.37, read-out: LUCIFERASE INFECTION ASSAY - IC50): 1.57 µM"
CC(CN1CCC2(CC1)C(=O)N(Cc1ccccn1)C(=O)N2Cc1ccccc1)c1ccccc1 (configuration not stated),> 7.04 µM,,"IC50 (PBLUC_HILL_SLOPE 2.23, PBLUC_R_SQUARED 0.302, read-out: LUCIFERASE INFECTION ASSAY - IC50): > 7.04 µM"
CN(c1ccccc1)S(=O)(=O)c1ccc(C(=O)N2CCN(Cc3ccc(Cl)s3)CC2)cc1,> 10 µM,,"IC50 (PBLUC_HILL_SLOPE 1.66, PBLUC_R_SQUARED 0.494, read-out: LUCIFERASE INFECTION ASSAY - IC50): 8.02 µM"
CC(OC(=O)c1cc2ccccc2[nH]1)C(=O)Nc1cccc(C#N)c1 (configuration not stated),> 10 µM,,"IC50 (HEPG2TOX_HILL_SLOPE 7.96, HEPG2TOX_R_SQUARED 0.0358, PBLUC_HILL_SLOPE 3.96, PBLUC_R_SQUARED 0.0932, read-out: LUCIFERASE INFECTION ASSAY - IC50): 8.49 µM"
CCOc1cc(/C=C/C(=O)c2ccc(F)c(Br)c2)cc(Cl)c1OCC(=O)N(C)C,> 10 µM,> 10 µM,
COC(=O)c1c(C)nn(C(=O)c2ccc(Cl)cc2)c1-c1snnc1C,> 8.76 µM,> 8.76 µM,

Compound,IC90,IC50 [1],also measured
NC(Cc1ccccc1)c1csc(NC(=O)NC(c2ccccc2)c2ccccc2)n1 (configuration not stated),> 7.7 µM,> 7.7 µM,
CC(c1nc(N)nc(N(C)C)n1)N(C)Cc1ccc(-c2ccc(Br)cc2)o1 (configuration not stated),> 10 µM,> 10 µM,
O=c1c(NNc2cccc(C(F)(F)F)c2)c(CSc2ccc(Cl)cc2)[nH]n1-c1ccccc1,> 6.72 µM,> 6.72 µM,
Cc1cc(O)c(CN2CCN(C(=O)C34CC5CC(CC(C5)C3)C4)CC2)cc1C,> 10 µM,> 10 µM,
Cc1nn(-c2ccc(Cl)cc2)c2sc(C(=O)NC(C)(C)CC(C)(C)C)cc12,> 10 µM,> 10 µM,
CCNc1ccc(S(=O)(=O)C(F)(F)F)cc1NC(=O)/C=C/c1ccc(OC)c(OC)c1,> 10 µM,,"IC50 (HEPG2TOX_HILL_SLOPE 1.67, 1.94, HEPG2TOX_R_SQUARED 0.906, 0.973, PBLUC_HILL_SLOPE 2.77, PBLUC_R_SQUARED 0.318, read-out: LUCIFERASE INFECTION ASSAY - IC50): 7.07 µM"
OC(c1ccc(F)c(Cl)c1)c1nnc(Nc2cccc(OC(F)(F)F)c2)s1 (configuration not stated),> 10 µM,,"IC50 (PBLUC_HILL_SLOPE 2.34, PBLUC_R_SQUARED 0.225, read-out: LUCIFERASE INFECTION ASSAY - IC50): 9.05 µM"
CC(Sc1ncnc2sc(-c3ccccc3)cc12)C(=O)N1CCNC1=O (configuration not stated),> 10 µM,,"IC50 (PBLUC_HILL_SLOPE 3.73, PBLUC_R_SQUARED 0.46, read-out: LUCIFERASE INFECTION ASSAY - IC50): 5.98 µM"
COc1cc(-c2cnc3cnc(-c4cccs4)cn23)cc(OC)c1OC,2.1 µM,,"IC50 (HEPG2TOX_HILL_SLOPE 1.1, HEPG2TOX_R_SQUARED 0.918, PBLUC_HILL_SLOPE 2.83, PBLUC_R_SQUARED 0.515, read-out: LUCIFERASE INFECTION ASSAY - IC50): 0.964 µM"
CCOc1cccc(-c2cn3c(-c4cccc(CO)c4)cnc3cn2)c1,> 9.55 µM,,"IC50 (PBLUC_HILL_SLOPE 11.7, PBLUC_R_SQUARED 0.129, read-out: LUCIFERASE INFECTION ASSAY - IC50): 8.63 µM"
CN1CCN(c2ccc(-c3cn4c(-c5ccc(F)c(Cl)c5)cnc4cn3)cn2)CC1,> 7.8 µM,> 7.8 µM,
CC(C)Cc1ccc(CN2CCc3c(c(C(=O)N(C)Cc4cscn4)nn3CC3CC3)C2)cc1,> 6.91 µM,,"IC50 (PBLUC_HILL_SLOPE 8.64, PBLUC_R_SQUARED 0.119, read-out: LUCIFERASE INFECTION ASSAY - IC50): 5.84 µM"
CC(C)(C)c1ccc(-c2nc(-c3ccc(C(F)(F)F)cc3)cs2)cc1,> 9.13 µM,,"IC50 (FFLUC_HILL_SLOPE 12.9, FFLUC_R_SQUARED 0.362, PBLUC_HILL_SLOPE 0.825, PBLUC_R_SQUARED 0.291, read-out: LUCIFERASE INFECTION ASSAY - IC50): 3.25 µM"
CC(C)Cc1ccc(C(C)NC(=O)c2ccc(CN3CCCC3)cc2)cc1 (configuration not stated),> 10 µM,,"IC50 (PBLUC_HILL_SLOPE 0.907, PBLUC_R_SQUARED 0.512, read-out: LUCIFERASE INFECTION ASSAY - IC50): 2.16 µM"
O=C(Nc1nc(-c2ccc[nH]2)cs1)c1cccc(Br)c1,> 10 µM,,"IC50 (HEPG2TOX_HILL_SLOPE 0.199, HEPG2TOX_R_SQUARED 0.479, read-out: LUCIFERASE INFECTION ASSAY - IC50): > 10 µM"
